Legend:
Type in all cases: in vivo, C57BL/6J mice
[1] = tested on: adipocytes from epididymal white adipose tissue; experiment: Histopathology of epididymal white adipose tissue (adipocyte size); conditions: high-fat diet mice, 10 mg/kg/day oral; HF 6765.87, CON 3263.78
Experimental: (§1) All animal procedures were performed as per guidelines provided by the Institutional Animal Care and Use Committee of Central Taiwan University of Science and Technology. Firstly, C57BL/6J mice (4-5 weeks old) were purchased from the National Laboratory Animal Breeding and Research Center, National Science Council, Taiwan, and were maintained on a 12-hour light/dark cycle (light cycle: 7 a.m. to 7 p.m.). Seven days after acclimation, the C57BL/6J mice were divided randomly into two groups: the control group (CON, n=9) was fed with low-fat diet (Diet 12450B, Research Diets, Inc., New Brunswick, N.J. 08901, USA), whereas the experimental group (n=36) was fed with a 45% high-fat diet (Diet 12451, Research Diets, Inc., New Brunswick, N.J. 08901, USA) for 12 weeks. The low-fat diet was composed of protein 20%, carbohydrate 70% and fat 10%, whereas the high-fat diet was composed of protein 20%, carbohydrate 35%, and fat 45% (of total energy, % kcal). […] The body weight was measured weekly throughout the experimentation. […] Livers and white adipose tissue (WATs, including epididymal mesenteric, and retroperitoneal WAT) were excised according to the defined anatomical landmarks, and the weight of the tissues was measured. […]

[2] = Measurement of hepatic lipids in high-fat diet-fed mice; conditions: 0.01 g/kg/day oral, week 12
Experimental: as §1, with “weeks.” for “weeks. The low-fat diet was composed of protein 20%, carbohydrate 70% and fat 10%, whereas the high-fat diet was composed of protein 20%, carbohydrate 35%, and fat 45% (of total energy, % kcal).”
For hepatic lipid extraction, a 0.375 g liver samples were homogenized with 1 mL distill water for 5 minutes. The dried pellet was finally resuspended in 0.5 mL ethanol and analyzed using a triglycerides kit as used for analyzing the serum lipids set forth above.

[3] = Blood parameters assay (TG, FFA, TC, adiponectin, leptin) in high-fat diet-fed mice; conditions: 0.01 g/kg/day oral
Experimental: All animal procedures were performed as per guidelines provided by the Institutional Animal Care and Use Committee of Central Taiwan University of Science and Technology. Firstly, C57BL/6J mice (4-5 weeks old) were purchased from the National Laboratory Animal Breeding and Research Center, National Science Council, Taiwan, and were maintained on a 12-hour light/dark cycle (light cycle: 7 a.m. to 7 p.m.). […] After 8-week diet-induction period, the high-fat treated mice were randomly subdivided into four groups (n=9 per group), namely, control group (CON), high-fat control group (HF), TS group (including T1 and T2, representing mice treated with the compound of the present invention using a dosage of 10 mg/kg/day and 20 mg/kg/day, respectively), rosiglitazone treated group (Rosi; 1% methylcellulose 10 mg/kg body weight, obtained from GlaxoSmithKline, product number: BRL49653 C). TS and Rosi group were administrated through oral gavage one time per day from the 9th to the 12th week of the experiment while the mice were still on the high-fat diet. On the other hand, CON and HF groups were treated with vehicle only. The body weight was measured weekly throughout the experimentation. By the end of the experimentation, food was deprived from the mice (from 10 p.m. to 10 a.m.) On the next day (the 85th day), all mice were sacrificed for blood and tissue collection and analysis. The mice were untreated with TS or Rosi at the 85th day. Livers and white adipose tissue (WATs, including epididymal mesenteric, and retroperitoneal WAT) were excised according to the defined anatomical landmarks, and the weight of the tissues was measured. Tissues were immediately frozen using liqid nitrogen and then kept at −80° C. for the analysis of target gene expression. Heparin (30 units/mL, Sigma) was added into blood sample. Plasma samples were collected by centrifugation at […] for 15 minutes at 4° C. The separation of the plasma was finished within 30 minutes. Plasma was obtained for leptin assay.
Blood samples (0.8 mL) were collected from the retro-orbital sinus of fasting mice and the plasma triglycerides (TG), total cholesterol (TC), and free fatty acids (FFA) were analyzed using commercial assay kits according to the manufacture's directions (Triglycerides-E test, Cholesterol-E test, and FFA-C test, Wako Pure Chemical, Osaka, Japan).
The levels of adiponectin and leptin were analyzed by ELISA using commercial assay kits according to manufacture's directions (mouse/rat adiponectin ELISA kit, B-Bridege International, GmbH, Germany, and mouse leptin ELISA kit, Morinaga, Yokohama, Japan).

[4] = Body weight, weight gain and absolute tissue weights in high-fat diet-fed mice
Experimental: All animal procedures were performed as per guidelines provided by the Institutional Animal Care and Use Committee of Central Taiwan University of Science and Technology. Firstly, C57BL/6J mice (4-5 weeks old) were purchased from the National Laboratory Animal Breeding and Research Center, National Science Council, Taiwan, and were maintained on a 12-hour light/dark cycle (light cycle: 7 a.m. to 7 p.m.). Seven days after acclimation, the C57BL/6J mice were divided randomly into two groups: the control group (CON, n=9) was fed with low-fat diet (Diet 12450B, Research Diets, Inc., New Brunswick, N.J. 08901, USA), whereas the experimental group (n=36) was fed with a 45% high-fat diet (Diet 12451, Research Diets, Inc., New Brunswick, N.J. 08901, USA) for 12 weeks. The low-fat diet was composed of protein 20%, carbohydrate 70% and fat 10%, whereas the high-fat diet was composed of protein 20%, carbohydrate 35%, and fat 45% (of total energy, % kcal). After 8-week diet-induction period, the high-fat treated mice were randomly subdivided into four groups (n=9 per group), namely, control group (CON), high-fat control group (HF), TS group (including T1 and T2, representing mice treated with the compound of the present invention using a dosage of 10 mg/kg/day and 20 mg/kg/day, respectively), rosiglitazone treated group (Rosi; 1% methylcellulose 10 mg/kg body weight, obtained from GlaxoSmithKline, product number: BRL49653 C). TS and Rosi group were administrated through oral gavage one time per day from the 9th to the 12th week of the experiment while the mice were still on the high-fat diet. On the other hand, CON and HF groups were treated with vehicle only. The body weight was measured weekly throughout the experimentation. By the end of the experimentation, food was deprived from the mice (from 10 p.m. to 10 a.m.) On the next day (the 85th day), all mice were sacrificed for blood and tissue collection and analysis. The mice were untreated with TS or Rosi at the 85th day. Livers and white adipose tissue (WATs, including epididymal mesenteric, and retroperitoneal WAT) were excised according to the defined anatomical landmarks, and the weight of the tissues was measured. Tissues were immediately frozen using liqid nitrogen and then kept at −80° C. for the analysis of target gene expression. Heparin (30 units/mL, Sigma) was added into blood sample. Plasma samples were collected by centrifugation at […] for 15 minutes at 4° C. The separation of the plasma was finished within 30 minutes. Plasma was obtained for leptin assay.
Body weight of mice was monitored and measured daily at the same time throughout the experimentation. The differences between the body weight of the next day and the former day is defined as body weight gain. The pellet food was weighed and followed by being placed in the cage food container. Unconsumed pellet high-fat food was discarded each day and fresh pellet of high-fat diet was provided to ensure consistent food quality throughout the experimentation. The high-fat food was stored at 4° C.

[5] = 0.01 g/kg/day oral gavage weeks 9-12

Q: With `CN(CCOc1ccc(CC2SC(=O)NC2=O)cc1)c1ccccn1` (centres unmarked) [Rosi, rosiglitazone] as the compound, how does the average area of the cut of the adipocytes (epididymal white adipose tissue) [1] read?
A: 4600 µm²

Q: And the “Liver lipids: Total lipid” value [2]?
A: 60.2 ± 5.4 mg/g

Q: And the “Liver lipids: Triacylglycerol” value [2]?
A: 42.6 ± 5.8 µmol/g

Q: And the “Blood Adiponectin” value ([3]; week 12)?
A: 7.51 ± 0.53 ng/mL

Q: And the “Blood FFA” value ([3]; week 12)?
A: 1.52 ± 0.16 meq/L

Q: And the “Blood Leptin” value ([3]; week 12)?
A: 2.063 ± 0.111 µg/mL

Q: What about the “Blood TC” value ([3]; week 12) of the same compound?
A: 134.9 ± 3.5 mg/dL

Q: And the “Blood TG” value ([3]; week 12, fasting)?
A: 81.8 ± 5.8 mg/dL

Q: What about the “Absolute tissue weight BAT” value [4, 5] of the same compound?
A: 0.210 ± 0.023 g

Q: And the “Absolute tissue weight MWAT” value [4, 5]?
A: 0.238 ± 0.033 g

Q: What about the “Absolute tissue weight RWAT” value [4, 5] of the same compound?
A: 0.334 ± 0.057 g

Q: And the “Absolute tissue weight Visceral fat” value [4, 5]?
A: 1.330 ± 0.138 g

Q: What about the “Absolute tissue weight EWAT” value ([4]; 0.01 g/kg/day oral gavage weeks 9-12, mean ± S.E. n=9) of the same compound?
A: 1.003 ± 0.103 g

Q: And the Weight gain ([4]; 0.01 g/kg/day oral gavage weeks 9-12, week 12)?
A: 0.91 ± 1.45 g

Reference: patent US9844543B2, “Method of treating or preventing hyperlipidemia with caffeamide derivatives” (priority 2015, dated 2017)
